Source: US11780868B1, “Homoleptic metal coordination complexes as antifungal agents” (King Abdulaziz University, priority 2023, dated 2023)

How the values were obtained:
Format in all cases: cell-based, Candida albicans
C. albicans 4085 = assay: Broth microdilution MIC/MFC (CLSI M27-A4); conditions: C. albicans 4085 (Flz resistant)
Method: (§1) In this work, nine strains of C. albicans procured from Charlotte Maxeke Johannesburg Academic Hospital under ethical clearance number M000402 were employed (Table 1). All the C. albicans strains were preserved at −70° C. deep freezer in 50% (v/v) anhydrous glycerol (Sigma-Aldrich St. Louis, MO, U.S.A.). For conducting experiments, cultures were revived in Sabouraud Dextrose broth (SDB; Merck, Germany) at 37° C. and 120 rpm for 24 h. Additionally, the RPMI 1640 medium and MOPS (Sigma-Aldrich, USA) were prepared as described by the Clinical and Laboratory Standards Institute (CLSI).
(§2) The activity of C1 against Candida species (n=9) was first estimated in terms of minimum inhibitory concentration (MIC) and minimum fungicidal concentration (MFC). […] Briefly, stock solutions of Flz (used as reference; Sigma-Aldrich St. Louis, MO, U.S.A.) and the synthesized compound was prepared in 1% dimethyl sulfoxide (DMSO; Sigma-Aldrich St. Louis, MO, U.S.A.) and the test concentrations were formulated in RPMI 1640-MOPS medium. A two-fold dilution of the compound (1250-0.61 μg/mL) and reference drug (128-0.062 μg/mL) was prepared in 96 well plates which were then seeded with C. albicans inoculum (1×10^6 cells/mL) and incubated at 37° C. for 24 h. In every set of experiments, sterility control, 1% DMSO as negative control and growth control were included. Growth was quantified by reading the optical density at 620 nm in a UV-1800 SHIMADZU spectrophotometer (Shimadzu Corporation, Japan). The MIC was determined as the lowest concentration that inhibited the growth of Candida strains. To determine MFC, each well without visible growth was subcultured onto the SDA plates for 24 hours at 37° C. The lowest concentration killing ≥99.9% of Candida was taken as the MFC value of the test compound.

C. albicans 4251 [1] = assay: Broth microdilution MIC/MFC (CLSI M27-A4); conditions: C. albicans 4251 (Flz sensitive)
Method: as §1, §2

C. albicans 4175 = assay: Broth microdilution MIC/MFC (CLSI M27-A4); conditions: C. albicans 4175 (Flz sensitive)
Method: as §1, §2

C. albicans 4324 = assay: Broth microdilution MIC/MFC (CLSI M27-A4); conditions: C. albicans 4324 (Flz resistant)
Method: as §1, §2

C. albicans 4554 = assay: Broth microdilution MIC/MFC (CLSI M27-A4); conditions: C. albicans 4554 (Flz sensitive)
Method: as §1, §2

C. albicans 5112 [2] = assay: Broth microdilution MIC/MFC (CLSI M27-A4); conditions: C. albicans 5112 (Flz resistant)
Method: as §1, §2

C. albicans 4180 = assay: Broth microdilution MIC/MFC (CLSI M27-A4); conditions: C. albicans 4180 (Flz sensitive)
Method: as §1, §2

C. albicans SC5314 = assay: Broth microdilution MIC/MFC (CLSI M27-A4); conditions: C. albicans SC5314 (control)
Method: as §1, §2

C. albicans 4106 = assay: Broth microdilution MIC/MFC (CLSI M27-A4); conditions: C. albicans 4106 (Flz resistant)
Method: as §1, §2

[3] = tested on: Flz resistant strains of C. albicans; assay: Broth microdilution MIC/MFC, range over strains
Method: as §1
(§3) The activity of C1 against Candida species (n=9) was first estimated in terms of minimum inhibitory concentration (MIC) and minimum fungicidal concentration (MFC). […] Briefly, stock solutions of Flz (used as reference; Sigma-Aldrich St. Louis, MO, U.S.A.) and the synthesized compound was prepared in 1% dimethyl sulfoxide (DMSO; Sigma-Aldrich St. Louis, MO, U.S.A.) and the test concentrations were formulated in RPMI 1640-MOPS medium. […] Growth was quantified by reading the optical density at 620 nm in a UV-1800 SHIMADZU spectrophotometer (Shimadzu Corporation, Japan). The MIC was determined as the lowest concentration that inhibited the growth of Candida strains. […]

[4] = tested on: Flz susceptible strains of C. albicans; assay: Broth microdilution MIC/MFC, range over strains
Method: as §1, §3

C. albicans 4251 [5] = assay: Cell cycle analysis (Muse cell analyser); conditions: 4 h
Method: (§4) The effect of C1 on the cell cycle of C. albicans 4251 and C. albicans 5112 was determined using Cell Cycle kit MCH100106 in a Guava® Muse® Cell Analyser according to the manufacturer's instructions. The cells of the C. albicans (1×10^6 cells/mL) were exposed to C1 for 4 h at different concentrations (0.5×MIC and 1×MIC). Each sample was rinsed with fresh PBS after exposure, and the pellet was fixed in 1 mL of 70% ice-cold ethanol (Sigma Aldrich Co., USA). The Cell Cycle assay was prepared by mixing the 100 μL of Luminex® Cell Cycle dye and 100 μL of the prewashed fixed cells and incubated in the dark for 30 minutes at room temperature. All samples were analysed by a Guava® Muse® Cell Analyser (Luminex® A DiaSorin Company, USA). During the experiment, both the negative (without treatment) and positive control (10 mM H2O2 treated) were used.

C. albicans 5112 [6] = assay: Cell cycle analysis (Muse cell analyser); conditions: 4 h
Method: as §4

Brc1ccc([O][Co][O]c2ccc(Br)cc2C=Nc2ccc3c(c2)OCCO3)c(C=Nc2ccc3c(c2)OCCO3)c1 [Complex C1, [Co(L)2]]
Median MIC (C. albicans 4085; 37° C., 24 h): 9.76 µg/mL
Median MFC (C. albicans 4085; killing ≥99.9%): 19.53 µg/mL
Median MIC (C. albicans 4251 [1]; 37° C., 24 h): 4.88 µg/mL
Median MFC (C. albicans 4251 [1]; killing ≥99.9%): 9.76 µg/mL
Median MIC (C. albicans 4175; 37° C., 24 h): 1.22 µg/mL
Median MFC (C. albicans 4175; killing ≥99.9%): 2.44 µg/mL
Median MIC (C. albicans 4324; 37° C., 24 h): 9.76 µg/mL
Median MFC (C. albicans 4324; killing ≥99.9%): 19.53 µg/mL
Median MIC (C. albicans 4554; 37° C., 24 h): 2.44 µg/mL
Median MFC (C. albicans 4554; killing ≥99.9%): 4.88 µg/mL
Median MIC (C. albicans 5112 [2]; 37° C., 24 h): 19.53 µg/mL
Median MFC (C. albicans 5112 [2]; killing ≥99.9%): 78.12 µg/mL
Median MIC (C. albicans 4180; 37° C., 24 h): 2.44 µg/mL
Median MFC (C. albicans 4180; killing ≥99.9%): 4.88 µg/mL
Median MIC (C. albicans SC5314; 37° C., 24 h): 2.44 µg/mL
Median MFC (C. albicans SC5314; killing ≥99.9%): 4.88 µg/mL
Median MIC (C. albicans 4106; 37° C., 24 h): 9.76 µg/mL
Median MFC (C. albicans 4106; killing ≥99.9%): 19.53 µg/mL
MIC value range [3]: 9.76 to 19.53 µg/mL
MIC value range [4]: 1.22 to 4.88 µg/mL
cells in G0/G1 phase (C. albicans 4251 [5]; C. albicans 4251 (Flz sensitive), 0.5×MIC): 62%
cells in G0/G1 phase (C. albicans 4251 [5]; C. albicans 4251, 1×MIC): 96.55%
cells in G0/G1 phase (C. albicans 5112 [6]; C. albicans 5112 (Flz resistant), 0.5×MIC): 50.8%
cells in G0/G1 phase (C. albicans 5112 [6]; C. albicans 5112, 1×MIC): 94.1%
